# Key:
# Assay in all cases: Competitive isoTOP-ABPP in situ (fragment-treated cells)
# Type in all cases: cell-based
# [1] = target: T1, cysteines in MDA-MB-231 and Ramos cells (Homo sapiens, UniProt O95336)
# T1 sequence (O95336 1-258): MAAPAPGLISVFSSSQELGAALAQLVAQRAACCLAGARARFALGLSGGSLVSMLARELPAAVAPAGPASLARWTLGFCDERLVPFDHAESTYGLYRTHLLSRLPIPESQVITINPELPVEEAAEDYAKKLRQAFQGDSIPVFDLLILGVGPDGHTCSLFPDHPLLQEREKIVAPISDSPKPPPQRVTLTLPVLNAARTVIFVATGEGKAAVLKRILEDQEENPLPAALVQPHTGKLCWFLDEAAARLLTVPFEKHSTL
# [2] = target: T2, cysteines in MDA-MB-231 and Ramos cells (Homo sapiens, UniProt Q9NVC6)
# T2 sequence (Q9NVC6 1-651): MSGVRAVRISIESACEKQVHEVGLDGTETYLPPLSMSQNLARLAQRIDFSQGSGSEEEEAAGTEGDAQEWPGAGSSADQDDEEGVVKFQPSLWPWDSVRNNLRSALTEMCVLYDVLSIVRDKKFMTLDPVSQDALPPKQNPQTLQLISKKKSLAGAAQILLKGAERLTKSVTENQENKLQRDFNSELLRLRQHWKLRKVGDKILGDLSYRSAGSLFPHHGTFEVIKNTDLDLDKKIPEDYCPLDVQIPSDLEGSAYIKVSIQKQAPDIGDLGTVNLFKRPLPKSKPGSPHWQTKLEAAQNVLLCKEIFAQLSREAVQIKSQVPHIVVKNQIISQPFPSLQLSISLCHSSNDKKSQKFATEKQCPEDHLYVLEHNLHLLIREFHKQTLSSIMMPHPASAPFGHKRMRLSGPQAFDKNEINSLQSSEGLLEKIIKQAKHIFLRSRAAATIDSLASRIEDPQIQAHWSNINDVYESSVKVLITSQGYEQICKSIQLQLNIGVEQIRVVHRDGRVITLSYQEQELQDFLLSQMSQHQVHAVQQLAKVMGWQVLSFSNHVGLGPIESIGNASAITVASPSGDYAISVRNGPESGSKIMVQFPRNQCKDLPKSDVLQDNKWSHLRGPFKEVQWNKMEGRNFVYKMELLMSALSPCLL
# [3] = target: cysteines in MDA-MB-231 and Ramos cells (Homo sapiens, UniProt P15121)
# [4] = target: cysteines in MDA-MB-231 and Ramos cells (Homo sapiens, UniProt Q15365)
# Sequence of cysteines in MDA-MB-231 and Ramos cells (Homo sapiens, UniProt Q15365) (Q15365 whole entry): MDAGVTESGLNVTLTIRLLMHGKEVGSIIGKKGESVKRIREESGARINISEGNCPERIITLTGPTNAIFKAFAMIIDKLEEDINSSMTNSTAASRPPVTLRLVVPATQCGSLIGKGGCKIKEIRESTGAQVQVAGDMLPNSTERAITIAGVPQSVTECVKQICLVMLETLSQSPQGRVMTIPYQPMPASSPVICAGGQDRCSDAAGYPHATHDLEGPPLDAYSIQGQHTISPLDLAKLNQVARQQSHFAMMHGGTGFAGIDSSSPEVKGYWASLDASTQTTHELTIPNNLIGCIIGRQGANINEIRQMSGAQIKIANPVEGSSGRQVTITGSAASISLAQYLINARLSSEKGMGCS
# [5] = target: T3, cysteines in MDA-MB-231 and Ramos cells (Homo sapiens, UniProt P31943)
# T3 sequence (P31943 1-449): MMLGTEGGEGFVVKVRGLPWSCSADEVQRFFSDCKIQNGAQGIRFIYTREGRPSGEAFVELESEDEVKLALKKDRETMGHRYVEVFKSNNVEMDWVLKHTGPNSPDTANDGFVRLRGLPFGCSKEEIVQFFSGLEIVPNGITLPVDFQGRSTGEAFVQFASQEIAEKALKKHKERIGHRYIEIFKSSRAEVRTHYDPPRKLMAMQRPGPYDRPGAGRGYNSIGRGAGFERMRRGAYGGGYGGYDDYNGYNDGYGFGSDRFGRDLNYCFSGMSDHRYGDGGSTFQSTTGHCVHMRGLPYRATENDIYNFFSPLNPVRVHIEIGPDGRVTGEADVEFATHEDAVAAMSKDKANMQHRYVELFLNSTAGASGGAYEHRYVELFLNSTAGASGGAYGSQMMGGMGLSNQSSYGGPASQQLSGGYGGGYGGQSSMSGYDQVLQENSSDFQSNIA
# [6] = target: cysteines in MDA-MB-231 and Ramos cells (Homo sapiens, UniProt Q13526)
# Sequence of cysteines in MDA-MB-231 and Ramos cells (Homo sapiens, UniProt Q13526) (Q13526 whole entry): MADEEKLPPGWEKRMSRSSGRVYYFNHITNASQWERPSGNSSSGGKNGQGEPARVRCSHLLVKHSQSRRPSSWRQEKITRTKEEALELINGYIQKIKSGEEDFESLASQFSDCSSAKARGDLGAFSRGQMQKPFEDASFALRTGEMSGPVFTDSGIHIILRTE
# [7] = target: T4, cysteines in MDA-MB-231 and Ramos cells (Homo sapiens, UniProt Q9Y3D0)
# T4 sequence (Q9Y3D0 1-163): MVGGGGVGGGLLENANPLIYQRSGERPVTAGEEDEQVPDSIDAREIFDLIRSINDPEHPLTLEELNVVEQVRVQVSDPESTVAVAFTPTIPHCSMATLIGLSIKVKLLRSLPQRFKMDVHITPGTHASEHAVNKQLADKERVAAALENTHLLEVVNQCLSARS
# [8] = target: T5, cysteines in MDA-MB-231 and Ramos cells (Homo sapiens, UniProt Q13155)
# T5 sequence (Q13155 1-320): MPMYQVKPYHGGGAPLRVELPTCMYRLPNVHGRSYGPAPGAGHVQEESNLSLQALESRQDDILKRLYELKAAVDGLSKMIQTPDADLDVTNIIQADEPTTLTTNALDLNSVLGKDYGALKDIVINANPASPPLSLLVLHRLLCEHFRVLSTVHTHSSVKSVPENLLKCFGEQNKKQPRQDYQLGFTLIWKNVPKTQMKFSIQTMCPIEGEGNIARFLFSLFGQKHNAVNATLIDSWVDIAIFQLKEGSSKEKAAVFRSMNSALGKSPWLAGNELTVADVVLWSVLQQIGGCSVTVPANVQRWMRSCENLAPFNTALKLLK
# [9] = target: cysteines in MDA-MB-231 and Ramos cells (Homo sapiens, UniProt Q93009)
# Sequence of cysteines in MDA-MB-231 and Ramos cells (Homo sapiens, UniProt Q93009) (Q93009 whole entry): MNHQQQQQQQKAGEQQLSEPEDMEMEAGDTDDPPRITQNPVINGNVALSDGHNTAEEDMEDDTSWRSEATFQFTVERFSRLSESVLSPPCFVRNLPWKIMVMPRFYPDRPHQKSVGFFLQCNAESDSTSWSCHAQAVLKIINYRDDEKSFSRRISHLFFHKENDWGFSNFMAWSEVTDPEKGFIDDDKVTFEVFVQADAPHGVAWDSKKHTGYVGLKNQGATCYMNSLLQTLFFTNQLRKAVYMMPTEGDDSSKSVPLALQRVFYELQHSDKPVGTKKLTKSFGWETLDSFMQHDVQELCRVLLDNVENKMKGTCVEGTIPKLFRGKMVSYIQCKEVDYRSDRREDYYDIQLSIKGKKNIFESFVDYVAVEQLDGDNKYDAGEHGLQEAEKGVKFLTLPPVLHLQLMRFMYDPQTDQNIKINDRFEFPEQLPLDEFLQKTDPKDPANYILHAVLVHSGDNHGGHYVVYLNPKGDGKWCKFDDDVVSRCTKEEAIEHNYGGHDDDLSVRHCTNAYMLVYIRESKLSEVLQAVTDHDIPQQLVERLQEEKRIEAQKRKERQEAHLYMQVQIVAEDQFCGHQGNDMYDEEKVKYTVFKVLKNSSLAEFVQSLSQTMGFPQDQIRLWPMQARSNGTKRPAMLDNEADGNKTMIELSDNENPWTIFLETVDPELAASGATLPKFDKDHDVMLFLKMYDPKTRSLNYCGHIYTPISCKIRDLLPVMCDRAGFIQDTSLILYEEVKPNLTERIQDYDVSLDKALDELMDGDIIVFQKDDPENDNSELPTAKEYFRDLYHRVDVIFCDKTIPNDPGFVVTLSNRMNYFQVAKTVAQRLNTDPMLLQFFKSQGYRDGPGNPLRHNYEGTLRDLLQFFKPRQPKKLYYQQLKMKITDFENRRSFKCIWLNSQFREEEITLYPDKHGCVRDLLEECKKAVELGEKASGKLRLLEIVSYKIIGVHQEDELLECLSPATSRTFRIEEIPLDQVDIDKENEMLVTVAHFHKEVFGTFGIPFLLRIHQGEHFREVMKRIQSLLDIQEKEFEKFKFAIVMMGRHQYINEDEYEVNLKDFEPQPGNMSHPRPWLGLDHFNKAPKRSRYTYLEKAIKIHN
"isoTOP-ABPP ratio O95336_C32 ([1]; 200 μM, insitu, 231)","isoTOP-ABPP ratio Q9NVC6_C649 ([2]; 200 μM, insitu, 231)","isoTOP-ABPP ratio Q93009_C223 ([9]; 200 μM, insitu, 231)","isoTOP-ABPP ratio P15121_C299 ([3]; 200 μM, insitu, 231)","isoTOP-ABPP ratio Q15365_C194 ([4]; 200 μM, insitu, 231)","isoTOP-ABPP ratio P31943_C267 ([5]; 200 μM, insitu, 231)","isoTOP-ABPP ratio Q13526_C113 ([6]; 200 μM, insitu, 231)","isoTOP-ABPP ratio Q9Y3D0_C93 ([7]; 200 μM, insitu, 231)","isoTOP-ABPP ratio Q13155_C23 ([8]; 200 μM, insitu, 231)","isoTOP-ABPP ratio Q13155_C291 ([8]; 200 μM, insitu, 231)",SMILES,further results
,,,,,,,,,,COc1ccc2c(c1)CCCN2C(=O)CCl [compound 2],"isoTOP-ABPP reactivity O95336_C32 PGLS ([1]; 200 μM, insitu, 231): 14.9; isoTOP-ABPP reactivity Q9NVC6_C649 MED17 ([2]; 200 μM, insitu, 231): 7.7; isoTOP-ABPP reactivity P15121_C299 AKR1B1 ([3]; 200 μM, insitu, 231): 0.9; isoTOP-ABPP reactivity Q15365_C194 PCBP1 ([4]; 200 μM, insitu, 231): 5.1; isoTOP-ABPP reactivity P31943_C267 HNRNPH1 ([5]; 200 μM, insitu, 231): 3.8; isoTOP-ABPP reactivity Q13526_C113 PIN1 ([6]; 200 μM, insitu, 231): 20.0; isoTOP-ABPP reactivity Q9Y3D0_C93 FAM96B ([7]; 200 μM, insitu, 231): 20.0; isoTOP-ABPP reactivity Q13155_C291 AIMP2 ([8]; 200 μM, insitu, 231): 20.0"
0.5,1.3,1.1,0.5,0.5,1.1,0.5,0.7,0.7,0.7,CC(C)CCOCCNC(=O)CCl [compound 27],
20.0,4.0,3.1,0.7,1.3,5.0,0.6,,1.6,1.1,O=C(CCl)NC(=O)NC12CC3CC(CC(C3)C1)C2 [compound 12],
0.9,0.8,1.8,2.7,1.1,1.5,0.7,0.5,0.9,0.8,O=C(CCl)NC12CC3CC(CC(C3)C1)C2 [compound 21],
,2.3,2.5,20.0,1.6,4.8,2.0,2.1,2.3,1.7,O=C(CCl)N1CCN(S(=O)(=O)c2ccccc2F)CC1 [compound 10],"isoTOP-ABPP ratio Q9NVC6_C649 ([2]; 200 μM, insitu, ramos): 2.1; isoTOP-ABPP ratio Q15365_C194 ([4]; 200 μM, insitu, ramos): 2.0; isoTOP-ABPP ratio P31943_C267 ([5]; 200 μM, insitu, ramos): 2.5; isoTOP-ABPP ratio Q13526_C113 ([6]; 200 μM, insitu, ramos): 1.3"
0.6,0.8,,0.9,0.3,1.0,0.6,0.6,,0.7,Cc1ccc(C=C(C#N)C(=O)NCCN2CCOCC2)cc1 [compound 41],
,,,,,,,,,,Cn1cc(S(=O)(=O)N2CCOCC2)cc1C(=O)NC(=O)CCl [compound 11],isoTOP-ABPP ratio O95336_C32 ([1]; 100 μM in situ 231): 0.9; isoTOP-ABPP ratio Q9NVC6_C649 ([2]; 100 μM in situ 231): 0.8; isoTOP-ABPP ratio Q93009_C223 ([9]; 100 μM in situ 231): 1.0; isoTOP-ABPP ratio P15121_C299 ([3]; 100 μM in situ 231): 0.7; isoTOP-ABPP ratio Q15365_C194 ([4]; 100 μM in situ 231): 0.4; isoTOP-ABPP ratio P31943_C267 ([5]; 100 μM in situ 231): 0.9; isoTOP-ABPP ratio Q13526_C113 ([6]; 100 μM in situ 231): 0.7; isoTOP-ABPP ratio Q9Y3D0_C93 ([7]; 100 μM in situ 231): 0.9; isoTOP-ABPP ratio Q13155_C23 ([8]; 100 μM in situ 231): 1.2; isoTOP-ABPP ratio Q13155_C291 ([8]; 100 μM in situ 231): 0.9
,1.1,1.0,0.8,,,0.7,0.8,,0.9,COc1ccccc1OCCNC(=O)CCl [compound 28],
,20.0,20.0,1.0,1.5,3.6,10.0,20.0,4.4,7.3,CC1CCc2ccccc2N1C(=O)CCl (centres unmarked) [compound 45],
,,1.0,0.9,0.6,1.3,1.4,20.0,1.2,1.1,O=C(CCl)Nc1cccc2ncccc12 [compound 51],
2.8,1.2,"0,8",1.0,15,1.2,1.0,2.4,1.4,1.7,C=CC(=O)Nc1cc(F)c(N2CCN(C(=O)OC(C)(C)C)CC2)c(F)c1 [compound 38],
,,,,,,,,,,COc1cc2c(cc1OC)CN(C(=O)CCl)CC2 [compound 8],"isoTOP-ABPP reactivity O95336_C32 PGLS ([1]; 200 μM, insitu, 231): 20.0; isoTOP-ABPP reactivity Q9NVC6_C649 MED17 ([2]; 200 μM, insitu, 231): 3.2; isoTOP-ABPP reactivity Q93009_C223 USP7 ([9]; 200 μM, insitu, 231): 20.0; isoTOP-ABPP reactivity P15121_C299 AKR1B1 ([3]; 200 μM, insitu, 231): 1.7; isoTOP-ABPP reactivity Q15365_C194 PCBP1 ([4]; 200 μM, insitu, 231): 1.4; isoTOP-ABPP reactivity P31943_C267 HNRNPH1 ([5]; 200 μM, insitu, 231): 5.3; isoTOP-ABPP reactivity Q13526_C113 PIN1 ([6]; 200 μM, insitu, 231): 2.6; isoTOP-ABPP reactivity Q13155_C23 AIMP2 ([8]; 200 μM, insitu, 231): 2.7; isoTOP-ABPP reactivity Q13155_C291 AIMP2 ([8]; 200 μM, insitu, 231): 2.4"
,0.8,,0.8,0.7,0.7,0.6,,,0.8,C=CC(=O)N(Cc1cccnc1)c1cc(C(F)(F)F)cc(C(F)(F)F)c1 [compound 31],"isoTOP-ABPP ratio O95336_C32 ([1]; 200 μM, insitu, ramos): 1.7; isoTOP-ABPP ratio P15121_C299 ([3]; 200 μM, insitu, ramos): 1.3; isoTOP-ABPP ratio Q15365_C194 ([4]; 200 μM, insitu, ramos): 1.6; isoTOP-ABPP ratio P31943_C267 ([5]; 200 μM, insitu, ramos): 0.9; isoTOP-ABPP ratio Q13526_C113 ([6]; 200 μM, insitu, ramos): 1.1"
,,,,,,,,,,O=C(CCl)N1CCC(Cc2ccccc2)CC1 [compound 9],"isoTOP-ABPP reactivity O95336_C32 PGLS ([1]; 200 μM, insitu, 231): 6.7; isoTOP-ABPP reactivity Q9NVC6_C649 MED17 ([2]; 200 μM, insitu, 231): 2.2; isoTOP-ABPP reactivity P15121_C299 AKR1B1 ([3]; 200 μM, insitu, 231): 1.4; isoTOP-ABPP reactivity Q15365_C194 PCBP1 ([4]; 200 μM, insitu, 231): 10.1; isoTOP-ABPP reactivity P31943_C267 HNRNPH1 ([5]; 200 μM, insitu, 231): 2.1; isoTOP-ABPP reactivity Q13526_C113 PIN1 ([6]; 200 μM, insitu, 231): 3.3; isoTOP-ABPP reactivity Q13155_C291 AIMP2 ([8]; 200 μM, insitu, 231): 1.9"
,,,,,,,,,,COc1ccc(C2CC(c3cccs3)=NN2C(=O)CCl)cc1 (centres unmarked) [compound 4],isoTOP-ABPP reactivity Q9NVC6_C649 MED17 ([2]; 100 μM in situ 231): 1.7; isoTOP-ABPP reactivity Q93009_C223 USP7 ([9]; 100 μM in situ 231): 6.8; isoTOP-ABPP reactivity P15121_C299 AKR1B1 ([3]; 100 μM in situ 231): 1.0; isoTOP-ABPP reactivity Q15365_C194 PCBP1 ([4]; 100 μM in situ 231): 1.4; isoTOP-ABPP reactivity P31943_C267 HNRNPH1 ([5]; 100 μM in situ 231): 6.0; isoTOP-ABPP reactivity Q13526_C113 PIN1 ([6]; 100 μM in situ 231): 3.4; isoTOP-ABPP reactivity Q9Y3D0_C93 FAM96B ([7]; 100 μM in situ 231): 20.0; isoTOP-ABPP reactivity Q13155_C23 AIMP2 ([8]; 100 μM in situ 231): 2.8; isoTOP-ABPP reactivity Q13155_C291 AIMP2 ([8]; 100 μM in situ 231): 20.0
